Measurements from BigSolDB 2.1.

CC(=O)N1CCN(c2ccc(OC[C@@H]3CO[C@@](Cn4ccnc4)(c4ccc(Cl)cc4Cl)O3)cc2)CC1 (racemic)
solubility (mole fraction)
Settings	293.2 K	298.2 K	303.2 K	308.2 K	313.2 K
in isopropanol	0.000774	0.00102	0.00136	0.00204	0.00291
in propylene glycol	0.00148	0.00195	0.00264	0.0039	0.00562
